Consider seven compounds from patent US20130178413A1, “HCV NS3 PROTEASE INHIBITORS” (priority 2010, published 2013).

Where two headings read alike, the source gives them in different places.

For assay [1], the target named is NS3/4A protease gt 1b A156V (Hepatitis C virus genotype 1b, UniProt P26663, A1182V). The experiment in a line: HCV NS3 protease time-resolved fluorescence (TRF) assay, NS3/4A inhibitory activity (Ki), gt 1b A156V mutant. The class given is biochemical, hepatitis C virus (HCV). Here is the method: (§1) The HCV NS3 protease inhibitory activity of the present compounds may be tested using assays known in the art. One such assay is HCV NS3 protease time-resolved fluorescence (TRF) assay as described below and in International Patent Application Publication WO2006/102087. Other examples of such assays are described in e.g., International Patent Application Publication WO2005/046712. HCV NS3 protease inhibitors, such as those described herein have a Ki less than 50 μM, such as less than 10 μM, and less than 100 nM. Ki is determined by an NS3 protease assay. The assay is performed in a final volume of 100 μl in assay buffer containing 50 mM HEPES, pH 7.5, 150 mM NaCl, 15% glycerol, 0.15% TRITON X-100, 10 mM DTT, and 0.1% PEG 8000. NS3 protease is pre-incubated with various concentrations of inhibitors in DMSO for 30 minutes. The reaction is initiated by adding the TRF peptide substrate (final concentration 100 nM). NS3 mediated hydrolysis of the substrate is quenched after 1 hour at room temperature with 100 μl of 500 mM MES, pH 5.5. Product fluorescence is detected using either a VICTOR V2 or FUSION fluorophotometer (Perkin Elmer Life and Analytical Sciences) with excitation at 340 nm and emission at 615 nm with a 400 μs delay. Testing concentrations of different enzyme forms are selected to result in a signal to background ratio (S/B) of 10-30. IC50 values are derived using a standard four-parameter fit to the data. Ki values are derived from IC50 values using the following formula,
(§2) IC50=Ki(1+[S]/KM), Eqn (1),
(§3) where [S] is the concentration of substrate peptide in the reaction and KM is the Michaelis constant. See P. Gallinari et al., 38 BIOCHEM. 5620-32 (1999); P. Gallinari et al., 72 J. VIROL. 6758-69 (1998); M. Taliani et al., 240 ANAL. BIOCHEM. 60-67 (1996).
(§4) One such assay is HCV NS3 protease time-resolved fluorescence (TRF) assay as described below and in Mao et al., Anal Biochem. 373:1-8, 2008 and International Patent Application Publication WO 2006/102087. A NS3 protease assay can be performed, for example, in a final volume of 100 μl assay buffer containing 50 mM HEPES, pH 7.5, 150 mM NaCl, 15% glycerol, 0.15% TRITON X-100, 10 mM DTT, and 0.1% PEG 8000. NS3 and NS4A protease is pre-incubated with various concentrations of inhibitors in DMSO for 30 minutes. The reaction is initiated by adding the TRF peptide substrate (final concentration 100 nM). NS3 mediated hydrolysis of the substrate is quenched after 1 hour at room temperature with 100 μl of 500 mM MES, pH 5.5. Product fluorescence is detected using either a VICTOR V2 or FUSION fluorophotometer (Perkin Elmer Life and Analytical Sciences) with excitation at 340 nm and emission at 615 nm with a 400 μs delay. Testing concentrations of different enzyme forms are selected to result in a signal to background ratio (S/B) of 10-30. IC50 values are derived using a standard four-parameter fit to the data. Ki values are derived from IC50 values using the following formula,
(§5) where [S] is the concentration of substrate peptide in the reaction and KM is the Michaelis constant. See P. Gallinari et al., 38 BIOCHEM. 5620-32 (1999); P. Gallinari et al., 72 J. VIROL. 6758-69 (1998); M. Taliani et al., 240 ANAL. BIOCHEM. 60-67 (1996); Mao et al., Analytical Biochemistry 373: 1-8, 2008. Measuring Compound Inhibitory Potency (Replicon EC50 (nM))

The next assay relates to gt 1b Replicon. Put plainly: HCV replicon assay, compound inhibitory potency (Replicon EC50). In kind it is cell-based. The following applies: Hepatitis C virus, GT1B. Here is the method: Measurement of inhibition by compounds was performed using the HCV replicon system. Several different replicons encoding different HCV genotypes or mutations were used. In addition, potency measurements were made using different formats of the replicon assay, including different ways of measurements and different plating formats. See Jan M. Vrolijk et al., A replicons-based bioassay for the measurement of interferons in patients with chronic hepatitis C, 110 J. VIROLOGICAL METHODS 201 (2003); Steven S. Carroll et al., Inhibition of Hepatitis C Virus RNA Replication by 2′-Modified Nucleoside Analogs, 278(14) J. BIOLOGICAL CHEMISTRY 11979 (2003). However, the underlying principles are common to all of these determinations, and are outlined below.
Stable neomycin phosphotransferase encoding replicon-harboring cell lines were used, so all cell lines were maintained under G418 selection prior to the assay. In some cases the cell lines encoded a luciferase:Neor fusion and could be assayed either directly by determination of RNA copy number, or indirectly through measurement of the luciferase activity.
To initiate an assay, replicon cells were plated in the presence of a dilution series of test compound in the absence of G418. Typically, the assays were performed in a 96-well plate format for manual operation, or a 384 well plate in an automated assay. Replicon cells and compound were incubated for 24-48 hours, depending on the assay. At the end of the assay, cells are washed free of media and compound and then lysed. For direct quantitation, RNA levels were measured by ^32P-probe hybridization and protection, or in a TAQMAN based assay and normalized to cellular cyclophilin A RNA levels. In some cases, luciferase activity was measured using a conventional luciferase assay. In all cases EC50 determinations were calculated as a percent of a DMSO control by fitting the data to a four parameter fit function.

A further assay deals with NS3/4A protease gt 1b (Hepatitis C virus genotype 1b, UniProt P26663). Put plainly: HCV NS3 protease time-resolved fluorescence (TRF) assay, NS3/4A inhibitory activity (Ki), gt 1b. The class given is biochemical. The following applies: genotype 1b NS3/4A; read-out: Enzyme Activity gt 1b Ki. Here is the method: as §1, §2, §3, §4, §5
The target in a further assay is NS3/4A protease gt 3a (Hepatitis C virus genotype 3a, UniProt Q81258). The experiment in a line: HCV NS3 protease time-resolved fluorescence (TRF) assay, NS3/4A inhibitory activity (Ki), gt 3a. The class given is biochemical. The following applies: genotype 3a NS3/4A; read-out: Enzyme Activity gt 3a Ki. How it is done:
as §1, §2, §3, §4, §5

Where [2] appears, read: 10% Fetal Bovine Serum, read-out: gt 1b Replicon EC50 10% FBS.
Where [3] appears, read: 50% Normal Human Serum, read-out: gt 1b Replicon EC50 50% NHS.

`C=C[C@@H]1C[C@]1(NC(=O)[C@@H]1C[C@@H]2CN1C(=O)[C@H](C1CCCC1)NC(=O)O[C@]1(C)C[C@H]1CCCCCc1nc3cccc(OC)c3nc1O2)C(=O)NS(=O)(=O)C1(C)CC1` [Example I-1, (1R,18R,20R,24S,27S)-24-Cyclopentyl-6-methoxy-20-methyl-N-[(1R,2S)-1-({[(1-methylcyclopropyl)sulfonyl]amino}carbonyl)-2-vinylcyclopropyl]-22,25-dioxo-2,21-dioxa-4,11,23,26-tetraazapentacyclo[24.2.1.0^3,12.0^5,10.0^18,20]nonacosa-3,5,7,9,11-pentaene-27-carboxamide]: the Ki in assay [1] was determined as 1 nM; at NS3/4A protease gt 1b it was 0.04 nM; on NS3/4A protease gt 3a, 1.6 nM. Further, the EC50 in the assay on gt 1b Replicon (setting [2]) was found to be 2 nM; in the assay with gt 1b Replicon (setting [3]), 7.6 nM.

Take `C=C[C@@H]1C[C@]1(NC(=O)[C@@H]1C[C@@H]2CN1C(=O)[C@H](C1CCCC1)NC(=O)O[C@]1(C)CCC[C@H]1CCCCCc1nc3ccc(OC)cc3cc1O2)C(=O)NS(=O)(=O)C1CC1` [Example I-3, (1R,18R,22R,26S,29S)-26-Cyclopentyl-N-((1R,2S)-1-{[(cyclopropylsulfonyl)amino]carbonyl}-2-vinylcyclopropyl)-7-methoxy-22-methyl-24,27-dioxo-2,23-dioxa-11,25,28-triazapentacyclo[26.2.1.0^3,12.0^5,10.0^18,22]hentriaconta-3(12),4,5,7,9,10-hexaene-29-carboxamide]: the results for the inhibition constant Ki (in assay [1]; on NS3/4A protease gt 1b; on NS3/4A protease gt 3a) were 3.3 nM, 0.03 nM and 0.5 nM, respectively. For the same compound, the half-maximal effective concentration (EC50) with gt 1b Replicon (setting [2]) was 6 nM; with gt 1b Replicon (setting [3]), 23 nM.

Take `C=C[C@@H]1C[C@]1(NC(=O)[C@@H]1C[C@@H]2CN1C(=O)[C@H](C1CCCC1)NC(=O)O[C@]1(C)C[C@H]1CC/C=C/Cc1c(nc3ccccc3c1O)O2)C(=O)NS(=O)(=O)C1CC1` [Example I-4, (1R,14E,18R,20R,24S,27S)-24-Cyclopentyl-N-((1R,2S)-1-{[(cyclopropylsulfonyl)amino]carbonyl}-2-vinylcyclopropyl)-11-hydroxy-20-methyl-22,25-dioxo-2,21-dioxa-4,23,26-triazapentacyclo[24.2.1.0^3,12.0^5,10.0^18,20]nonacosa-3,5,7,9,11,14-hexaene-27-carboxamide]: the Ki in assay [1] was determined as 0.9 nM; at NS3/4A protease gt 1b it was 0.04 nM; at NS3/4A protease gt 3a it was 0.7 nM. For the same compound, the figures for the EC50 in the assay with gt 1b Replicon (setting [2]) and in the assay on gt 1b Replicon (setting [3]) were 7 nM and 17 nM, respectively.

As to `C=C[C@@H]1C[C@]1(NC(=O)[C@@H]1C[C@@H]2CN1C(=O)[C@H](C(C)(C)C)NC(=O)O[C@]1(C)C[C@H]1CCC/C=C/c1cccc3c1CN(C3)C(=O)O2)C(=O)NS(=O)(=O)C1CC1` [Example I-5, (1aR,5S8S,10R,19E,23aR)-5-tert-butyl-N-{(1R,2S)-1-[(cyclopropylsulfonyl)carbamoyl]-2-ethenylcyclopropyl}-1a-methyl-3,6,12-trioxo-1a,3,4,5,6,9,10,14,21,22,23,23a-dodecahydro-1H,8H-7,10:13,15-dimethanocycloproa[n][4,13,2,8,11]benzodioxatriazacyclodocosine-8(12H)-carboxamide], the inhibition constant (Ki) in assay [1] worked out at 1.3 nM; on NS3/4A protease gt 1b it was 0.02 nM; on NS3/4A protease gt 3a, 1 nM. Also, the EC50 was found to be 3 nM in the assay with gt 1b Replicon (setting [2]) and 22 nM with gt 1b Replicon (setting [3]).

Regarding `C=C[C@@H]1C[C@]1(NC(=O)[C@@H]1C[C@@H]2CN1C(=O)[C@H](C(C)(C)C)NC(=O)O[C@]1(C)C[C@H]1CCCCCc1cccc3c1CN(C3)C(=O)O2)C(=O)NS(=O)(=O)C1CC1` [Example I-6, (1aR,5S,8S,10R,23aR)-5-tert-butyl-N-{(1R,2S)-1-[(cyclopropylsulfonyl)carbamoyl]-2-ethenylcyclopropyl}-1a-methyl-3,6,12-trioxo-1a,3,4,5,6,9,10, 14,19,20,21,22,23,23a-tetradecahydro-1H,8H-7,10:13,15-dimethano cyclopropa [n][4,13,2,8,11] benzodioxatriaza cyclodocosine-8(12H)-carboxamide], the figures for the Ki (in assay [1]; at NS3/4A protease gt 1b; at NS3/4A protease gt 3a) were 0.3 nM, 0.02 nM and 2.9 nM, respectively. Also, the EC50 in the assay with gt 1b Replicon (setting [2]) is 3 nM; in the assay with gt 1b Replicon (setting [3]) it was 54 nM.

As to `CC[C@@H]1C[C@]1(NC(=O)[C@@H]1C[C@@H]2CN1C(=O)[C@H](C(C)(C)C)NC(=O)O[C@]1(C)C[C@H]1CCCCCc1cccc3c1CN(C3)C(=O)O2)C(=O)NS(=O)(=O)C1CC1` [Example I-7, (1aR,5S,8S,10R,23aR)-5-tert-butyl-N-{(1R,2R)-1-[(cyclopropylsulfonyl)carbamoyl]-2-ethylcyclopropyl}-1a-methyl-3,6,12-trioxo-1a,3,4,5,6,9,10,14,19, 20,21,22,23,23a-tetradecahydro-1H,8H-7,10:13,15-dimethano cyclopropa[n][4,13,2,8, 11]benzodioxatriaza cyclodocosine-8(12H)-carboxamide], the values for the inhibitory constant (Ki) (in assay [1]; at NS3/4A protease gt 1b; at NS3/4A protease gt 3a) were 2.2 nM, 0.02 nM and 8.7 nM, respectively. For the same compound, the values for the EC50 in the assay with gt 1b Replicon (setting [2]) and in the assay on gt 1b Replicon (setting [3]) were 4 nM and 27 nM, respectively.

As for `C=C[C@@H]1C[C@]1(NC(=O)[C@@H]1C[C@@H]2CN1C(=O)[C@H](C1CCCC1)NC(=O)O[C@@]1(C)C[C@@H]1CC/C=C/Cn1c(nc3cc(Cl)ccc3c1=O)O2)C(=O)NS(=O)(=O)C1CC1` [Example I-25, (1aS,5S,8S,10R,20E,23aS)-14-chloro-5-cyclopentyl-N-{(1R,2S)-1-[(cyclopropylsulfonyl)carbamoyl]-2-ethenylcyclopropyl}-1a-methyl-3,6,17-trioxo-1,1a,3,4,5,6,9, 10,19,22,23,23a-dodecahydro-8H,17H-7,10-methanocyclo propa[18,19][1,10,3,6, 12]dioxatriazacyclo nonadecino[11,12-b]quinazoline-8-carboxamide], the figures for the Ki (in assay [1]; on NS3/4A protease gt 1b; at NS3/4A protease gt 3a) were 142 nM, 0.2 nM and 41 nM, respectively.

As a reminder, the Ki is the dissociation constant of the complex between target and ligand, obtained from inhibition or displacement. By EC50 is commonly meant the concentration needed to bring the measured effect to its halfway point.
